Data taken from ChEMBL document CHEMBL5537113, “Discovery of 1,2-diaryl-3-oxopyrazolidin-4-carboxamides as a new class of MurA enzyme inhibitors and characterization of their antibacterial activity” (Eur J Med Chem, 2023).
pIC50: −log10 of the molar value. Calls of active or inactive are those of the source. The rule behind the calls is not given here.

Columns and labels:
[1] = tested on: Staphylococcus aureus; assay: Antibacterial activity against methicillin resistant Staphylococcus aureus USA300 assessed as reduction in microbial growth by CLSI based broth microdilution method; assay type: functional
[2] = tested on: Staphylococcus aureus; assay: Antibacterial activity against vancomycin resistant Staphylococcus aureus 10 assessed as reduction in microbial growth by CLSI based broth microdilution method; assay type: functional
[3] = target: UDP-N-acetylglucosamine 1-carboxyvinyltransferase (Escherichia coli K-12) (UniProt P0A749); assay: Inhibition of Escherichia coli K12 His-tagged MurA expressed in Escherichia coli BL21 cells at 50 uM using UNAG as substrate pre incubated for 15 mins followed by substrate addition and measured after 15 mins by microplate reader analysis relative to control; conditions: time 30.0 min
Chain of UDP-N-acetylglucosamine 1-carboxyvinyltransferase (Escherichia coli K-12) (P0A749 whole entry): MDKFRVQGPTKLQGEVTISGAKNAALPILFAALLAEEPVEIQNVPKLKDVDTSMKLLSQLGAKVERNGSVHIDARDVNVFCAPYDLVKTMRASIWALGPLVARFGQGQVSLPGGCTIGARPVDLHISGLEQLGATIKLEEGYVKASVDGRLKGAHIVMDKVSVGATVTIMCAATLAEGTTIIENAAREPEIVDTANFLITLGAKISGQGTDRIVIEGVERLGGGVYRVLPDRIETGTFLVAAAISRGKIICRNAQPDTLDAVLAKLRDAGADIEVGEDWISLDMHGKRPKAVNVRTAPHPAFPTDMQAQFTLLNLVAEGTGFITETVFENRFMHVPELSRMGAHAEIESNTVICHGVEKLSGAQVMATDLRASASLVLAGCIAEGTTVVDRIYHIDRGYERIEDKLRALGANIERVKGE

[4] = Drug uptake in Escherichia coli harboring tolC deletion mutant assessed per 1.6x10^9 cells at 10 uM incubated for 30 mins by LC analysis; assay type: ADME; conditions: 0.5 h
[5] = tested on: Escherichia coli; assay: Antibacterial activity against Escherichia coli harboring tolC deletion mutant assessed as reduction in microbial growth incubated for 16 hrs by serial dilution method; assay type: functional
[6] = tested on: Enterococcus faecalis; assay: Antibacterial activity against Enterococcus faecalis ATCC 51299 assessed as reduction in microbial growth by CLSI based broth microdilution method; assay type: functional
[7] = tested on: Staphylococcus aureus; assay: Antibacterial activity against methicillin resistant Staphylococcus aureus NRS119 assessed as reduction in microbial growth by CLSI based broth microdilution method; assay type: functional
[8] = tested on: Staphylococcus aureus; assay: Antibacterial activity against methicillin sensitive Staphylococcus aureus NRS107 assessed as reduction in microbial growth by CLSI based broth microdilution method; assay type: functional
[9] = Drug uptake in Escherichia coli harboring tolC deletion mutant at 10 uM incubated for 30 mins by LC analysis; assay type: ADME; conditions: 0.5 h
[10] = tested on: Streptococcus pneumoniae; assay: Antibacterial activity against Streptococcus pneumoniae ATCC 700677 assessed as reduction in microbial growth by CLSI based broth microdilution method; assay type: functional
[11] = tested on: Clostridioides difficile; assay: Antibacterial activity against Clostridioides difficile ATCC BAA1870 assessed as reduction in microbial growth incubated for 48 hrs by broth microdilution method; assay type: functional
[12] = tested on: Staphylococcus aureus; assay: Antibacterial activity against Staphylococcus aureus Newman D2C NCTC 10833 assessed as reduction in microbial growth incubated for 16 hrs by serial dilution method; assay type: functional
[13] = target: UDP-N-acetylglucosamine 1-carboxyvinyltransferase (Escherichia coli K-12, UniProt P0A749); assay: Inhibition of Escherichia coli K12 His-tagged MurA expressed in Escherichia coli BL21 cells using UNAG as substrate pre incubated for 15 mins followed by substrate addition and measured after 15 mins by microplate reader analysis
Chain of UDP-N-acetylglucosamine 1-carboxyvinyltransferase (Escherichia coli K-12, UniProt P0A749) (P0A749 whole entry): as above

[14] = tested on: Bacteria; assay: Binding affinity to wild type U15-N labelled MurA (unknown origin) expressed in Escherichia coli at 200 uM using UNAG as substrate incubated for 90 to 150 mins by 15N-1H-HSQC NMR analysis; conditions: time 90-150 min
[15] = tested on: UDP-N-acetylglucosamine 1-carboxyvinyltransferase (Escherichia coli K-12), P0A749 [C115D]; assay: Inhibition of Escherichia coli MurA C115D mutant using UNAG as substrate pre incubated for 15 mins followed by substrate addition and measured after 15 mins by microplate reader analysis; conditions: time 30.0 min
Chain of UDP-N-acetylglucosamine 1-carboxyvinyltransferase (Escherichia coli K-12), P0A749 [C115D] (P0A749 whole entry C115D): as the sequence (P0A749 whole entry) above, with C115D counted along it

[16] = target: UDP-N-acetylglucosamine 1-carboxyvinyltransferase (Escherichia coli K-12, UniProt P0A749, C115D); assay: Inhibition of Escherichia coli MurA C115D mutant at 50 uM using UNAG as substrate pre incubated for 15 mins followed by substrate addition and measured after 15 mins by microplate reader analysis relative to control
Chain of UDP-N-acetylglucosamine 1-carboxyvinyltransferase (Escherichia coli K-12, UniProt P0A749, C115D) (P0A749 whole entry C115D): as the sequence (P0A749 whole entry) above, with C115D counted along it

[17] = tested on: Bacteria; assay: Binding affinity to wild type U15-N labelled MurA (unknown origin) expressed in Escherichia coli at 500 uM using UNAG as substrate incubated for 90 to 150 mins by 15N-1H-HSQC NMR analysis; conditions: time 90-150 min

Q: Which MIC [1] does the source give for `N#Cc1cnc(NC(=O)C2CN(c3cccc(Cl)c3)N(c3cccc(Cl)c3)C2=O)s1` (configuration not stated) here?
A: 32 µg/mL

Q: What about the MIC [2] of the same molecule?
A: 8 µg/mL

Q: What about the inhibition [3] of the same molecule?
A: 70.8%

Q: And the Drug uptake [4]?
A: 84 µM

Q: What about the MIC [5] of the same molecule?
A: 10 µM

Q: And the MIC [6]?
A: > 64 µg/mL

Q: And the MIC [7]?
A: 16 µg/mL

Q: What about the MIC [8] of the same molecule?
A: 8 µg/mL

Q: And the Drug uptake [9]?
A: 2560 nM

Q: What about the MIC [10] of the same molecule?
A: 32 µg/mL

Q: What about the MIC [11] of the same molecule?
A: 32 µg/mL

Q: What about the MIC [12] of the same molecule?
A: 10 µM

Q: And the pIC50 [13]?
A: 4.96

Q: Which inhibition [3] does the source give for `O=C1NC(=O)c2cc(NC(=O)C3CN(c4cccc(Cl)c4)N(c4cccc(Cl)c4)C3=O)ccc21` (configuration not stated) here?
A: 81.6%

Q: And the Drug uptake [4]?
A: 30 µM

Q: What about the MIC [5] of the same molecule?
A: 17 µM

Q: What about the Activity [14] of the same molecule?
A: Active

Q: And the Drug uptake [9]?
A: 924 nM

Q: What about the inhibition [15] of the same molecule?
A: 74%

Q: And the pIC50 [16]?
A: 4.90

Q: What about the MIC [12] of the same molecule?
A: > 40 µM

Q: And the pIC50 [13]?
A: 4.95

Q: Which MIC [5] does the source give for `C[C@@H]1O[C@@H]1P(=O)(O)O` [FOSFOMYCIN] here?
A: 89 µM

Q: What about the Activity [17] of the same molecule?
A: Active

Q: What about the inhibition [15] of the same molecule?
A: inactive

Q: What about the MIC [12] of the same molecule?
A: 17 µM

Q: What about the pIC50 [13] of the same molecule?
A: 5.17
